Measured values published in ChEMBL document CHEMBL1140558, “An atom efficient, solvent-free, green synthesis and antimycobacterial evaluation of 2-amino-6-methyl-4-aryl-8-[(E)-arylmethylidene]-5,6,7,8-tetrahydro-4H-pyrano[3,2-c]pyridine-3-carbonitriles” (2007).
Values after ≈ are worked out from the molar mass of the structure shown.

Test system: Mycobacterium tuberculosis
Experiment: Antimycobacterial activity against multidrug-resistant Mycobacterium tuberculosis by agar dilution method
Type: functional

Structure (SMILES)	MIC [µM]
CN1CC2=C(OC(N)=C(C#N)C2c2ccccc2Cl)/C(=C/c2ccccc2Cl)C1 (stereo not drawn)	3.68 (≈ 1.56 µg/mL)
CN1CC2=C(OC(N)=C(C#N)C2c2cccc(F)c2)/C(=C/c2cccc(F)c2)C1 (stereo not drawn)	1.99 (≈ 0.779 µg/mL)
COc1c(N2CCNC(C)C2)c(F)cc2c(=O)c(C(=O)O)cn(C3CC3)c12 (stereo not drawn) [GATIFLOXACIN]	8.34 (≈ 3.13 µg/mL)
NNC(=O)c1ccncc1 [ISONIAZID]	45.6 (≈ 6.25 µg/mL)
CN1CC2=C(OC(N)=C(C#N)C2c2ccc(N(C)C)cc2)/C(=C/c2ccc(N(C)C)cc2)C1 (stereo not drawn)	0.43 (≈ 0.19 µg/mL)
CN1CC2=C(OC(N)=C(C#N)C2c2ccc(Cl)cc2)/C(=C/c2ccc(Cl)cc2)C1 (stereo not drawn)	1.84 (≈ 0.781 µg/mL)
CN1CC2=C(OC(N)=C(C#N)C2c2ccc(F)cc2)/C(=C/c2ccc(F)cc2)C1 (stereo not drawn)	0.97 (≈ 0.38 µg/mL)
CN1CC2=C(OC(N)=C(C#N)C2c2cccc([N+](=O)[O-])c2)/C(=C/c2cccc([N+](=O)[O-])c2)C1 (stereo not drawn)	1.75 (≈ 0.78 µg/mL)
